What all share (type): cell-based
For assay [1], the system named is A375 melanoma cells. The assay can be described thus: Exosome uptake assay (DiI-labeled exosomes, flow cytometry / fluorescence microscopy). To be noted: 24 hrs treatment. As for the experimental part: A375 melanoma exosomes were isolated from conditioned media using differential ultracentrifugation [Thery et al. 2006]. In brief, cells were cultured in exosome deficient media for 72 hours at which point the cell culture media was collected and centrifuged at 2000×g to remove dead cells and debris. Next, larger vesicles and cell debris were removed by centrifugation at 10,000×g for 30 minutes. Exosomes were then pelleted by centrifugation at 100,000×g for 70 minutes, and subsequently washed in PBS by another 100,000×g centrifugation step for 70 minutes. Exosomes were re-suspended in PBS. Protein concentration of exosomes was analyzed by BCA Protein assay (Thermo Scientific). […] In order to test if HDL NPs quenched exosome fluorescence, we incubated HDL NPs with fluorescently labeled exosomes for 4 hours and then measured the fluorescent signal.
The cellular uptake of exosomes was measured by fluorescence microscopy and flow cytometry after cell treatments. […] For fluorescence microscopy experiments, cells were plated on coverslips coated with 0.1% gelatin. Exosome uptake was measured over the course of 24 hours using a BD LSR Fortessa flow cytometer (Robert H. Lurie Comprehensive Cancer Center Flow Cytometry Core) or a Nikon A1R fluorescence microscope (Northwestern University Nikon Imaging Facility).
A general note: A flow cytometer gives signals particle by particle.

A further assay has as its target T1, GFP-SR-B1 (Homo sapiens, UniProt Q8WTV0).
T1 construct: expressed in transfected cells
T1 sequence (Q8WTV0 1-552): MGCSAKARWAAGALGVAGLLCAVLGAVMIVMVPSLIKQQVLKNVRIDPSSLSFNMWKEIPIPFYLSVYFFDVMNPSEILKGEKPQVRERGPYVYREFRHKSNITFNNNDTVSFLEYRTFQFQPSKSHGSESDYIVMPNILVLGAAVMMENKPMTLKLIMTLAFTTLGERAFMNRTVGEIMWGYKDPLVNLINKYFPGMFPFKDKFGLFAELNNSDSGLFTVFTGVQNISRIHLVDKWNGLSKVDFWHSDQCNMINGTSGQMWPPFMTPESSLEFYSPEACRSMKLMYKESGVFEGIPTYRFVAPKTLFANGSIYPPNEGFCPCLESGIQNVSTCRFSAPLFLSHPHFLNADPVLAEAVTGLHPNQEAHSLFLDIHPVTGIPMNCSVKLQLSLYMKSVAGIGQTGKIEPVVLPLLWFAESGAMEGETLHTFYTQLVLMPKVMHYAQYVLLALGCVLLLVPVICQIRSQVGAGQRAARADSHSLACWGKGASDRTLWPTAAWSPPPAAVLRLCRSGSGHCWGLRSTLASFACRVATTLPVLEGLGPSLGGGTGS
The assay can be described thus: GFP-SR-B1 clustering and dynamics (confocal imaging, computer vision analysis). The note with it: A375 cells expressing GFP-SR-B1, 24 hrs treatment. The text has this: A semi-automated approach using ImageJ software was employed to identify the areas of GFP-SR-B1 in the images. After background subtraction, an unsharp mask filter with a large radius was applied to locally enhance contrast. Manual thresholding of filtered images was then used to generate a segment mask, which could be overlaid on the original, background subtracted image to facilitate measurement of domain parameters such as area and mean intensity. […]
To calculate the linearity of the motion, we introduced a parameter rho (FIG. 3C), which is calculated as the ratio between the head-to-tail (first point to the end point) trajectory distance divided by the total distance traveled by fluorescent domains. […]
Fluorescence microscopy was performed using an A1R confocal microscope with assistance from the Northwestern University Center for Advanced Microscopy. Images were analyzed using NIS Elements (Nikon) and ImageJ (NIH) software. Live cell confocal fluorescence microscopy to assess lipid raft dynamics was performed with a Nikon Eclipse T1 microscope equipped with an Andor iXon Ultra 897 camera and analyzed using Metamorph software (Molecular Devices).

The subject of assay [2] is A375 melanoma cells. Kind of assay: 3H-cholesterol efflux assay. The note with it: BLT-1 1 μM; acceptors 500 nM. As for the experimental part: A375 cells were cultured in DMEM containing 1 μCi/mL [1,2,-^3H] cholesterol (Perkin-Elmer) overnight to label the cellular cholesterol pool. Cells were then washed in PBS and resuspended in serum free media. Human HDL or HDL NPs were added to the culture media and allowed to incubate for 6 hours. Cell culture media was then collected and subjected to liquid scintillation counting. The percentage of cholesterol efflux was determined by using the formula counts media/(counts cells+counts media)×100. Efflux of cholesterol in the absence of an acceptor was also measured and interpreted along with other results.

Regarding `CCCCCCC1CCCC1=NNC(N)=S` (stereo not drawn) [BLT-1, Blocks Lipid Transport 1], the “inhibition of cellular exosome uptake” value with A375 melanoma cells [1] is “did not result in the inhibition of exosome uptake”. The “clustering of GFP-SR-B1” value on GFP-SR-B1 is given as “did not result in the inhibition of exosome uptake or clustering of the receptor”. For the same compound, the “3H-cholesterol efflux to hHDL and HDL NP with BLT-1 treatment” value with A375 melanoma cells [2] is “reduced efflux to both hHDLs and HDL NPs”.

The values are drawn from US10413565B2, “Nanostructures for modulating intercellular communication and uses thereof” (Northwestern University, priority 2014, dated 2019).
